The nature of experiment [1]: Inhibition of SAG-induced hedgehog pathway in mouse SHH-LIGHT2 cells. It counts as cell-based.
The target in experiment [2] is T1, Sonic hedgehog protein (Mus musculus, UniProt Q62226). In words: Inhibition of SHh in mouse NIH3T3 cells assessed as Gli activation. Type of experiment: cell-based.
The target in experiment [3] is T1, Sonic hedgehog protein. Put plainly: Inhibition of SHh palmitoylation in mouse NIH3T3 cells. It counts as cell-based.
Experiment [4] has as its target T1, Sonic hedgehog protein. Put plainly: Inhibition of SHh in mouse LIGHT2 cells. Type of experiment: cell-based.
Experiment [5] can be described thus: Inhibition of hedgehog pathway in mouse C3H10T1/2 cells assessed as alkaline phosphatase enzyme activity. Conditions: c3h 10t1/2. It counts as cell-based.
A short description of experiment [6]: Cytotoxicity against human SK-N-BE(2) cells after 72 hrs by fluorometric microculture cytotoxicity assay. Type of experiment: functional. Conditions: SKNBE2, 72 h, pooled result: one value given for 7 cell lines, strains, targets or settings.
A short description of experiment [7]: Inhibition of SHH-mediated mouse C3H10T1/2 cell differentiation to osteoblasts. To be noted: c3h 10t1/2.
Experiment [8] in a line: Decrease of cell density in human CCC cells at 50 nM up to 24 hrs. It counts as functional. More on the design: scale not given: the % may be the effect or the level left.
Experiment [9] can be described thus: Antiproliferative activity against mouse medulloblastoma cells expressing wild type SMO. Type of experiment: functional. To be noted: Medulloblastoma cell.
The target in another experiment is Protein smoothened (Homo sapiens, UniProt Q99835, D473H). Put plainly: Inhibition of Smo D473H mutant (unknown origin) expressed in mouse C3H10T1/2 cells by luciferase assay. It counts as cell-based, C3H 10T1/2.
Chain of Protein smoothened (Q99835 28-787 D473H limits assumed): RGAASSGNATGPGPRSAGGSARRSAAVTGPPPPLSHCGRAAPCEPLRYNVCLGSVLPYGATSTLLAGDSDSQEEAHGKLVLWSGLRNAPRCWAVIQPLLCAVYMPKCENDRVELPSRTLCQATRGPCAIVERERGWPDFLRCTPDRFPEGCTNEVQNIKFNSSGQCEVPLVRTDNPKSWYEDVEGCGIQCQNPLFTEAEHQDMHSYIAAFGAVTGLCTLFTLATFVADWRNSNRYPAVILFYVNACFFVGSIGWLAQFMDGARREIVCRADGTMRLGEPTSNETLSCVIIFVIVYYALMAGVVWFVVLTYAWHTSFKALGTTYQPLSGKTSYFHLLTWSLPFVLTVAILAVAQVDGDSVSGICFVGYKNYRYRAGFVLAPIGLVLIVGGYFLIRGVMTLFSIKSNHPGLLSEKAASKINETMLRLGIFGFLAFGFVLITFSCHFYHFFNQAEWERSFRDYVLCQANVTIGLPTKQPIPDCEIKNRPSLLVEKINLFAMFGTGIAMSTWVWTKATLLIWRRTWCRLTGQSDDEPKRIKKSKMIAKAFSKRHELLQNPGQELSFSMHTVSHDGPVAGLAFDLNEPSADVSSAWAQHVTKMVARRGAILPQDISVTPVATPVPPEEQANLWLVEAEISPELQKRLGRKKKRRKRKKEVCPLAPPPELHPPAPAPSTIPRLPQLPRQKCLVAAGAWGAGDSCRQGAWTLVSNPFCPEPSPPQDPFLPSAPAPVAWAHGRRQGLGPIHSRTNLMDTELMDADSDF

T1 sequence (Q62226 25-198 limits assumed): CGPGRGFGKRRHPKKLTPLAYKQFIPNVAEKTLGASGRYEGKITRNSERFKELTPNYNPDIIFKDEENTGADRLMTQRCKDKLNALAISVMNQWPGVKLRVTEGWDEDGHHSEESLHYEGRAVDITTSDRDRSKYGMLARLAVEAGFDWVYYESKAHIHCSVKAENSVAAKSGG

As usually defined, the IC50 is the midpoint of a concentration-inhibition curve. As to `COCCOC(=O)C1=C(C)NC2=C(C(=O)CC(c3ccccc3OC)C2)C1c1cccc(O)c1` (centres undefined), in experiment [1], the IC50 was below 10 µM.
On the same count and under the same terms, the result for `OCCNc1nc(N2CCN(c3ccccc3)CC2)nc2ccccc12` reads below 10 µM.
With `CCC(C)CNCC(=O)N1CCc2sccc2C1COc1cccc(C)c1` (centres undefined), the IC50 on Sonic hedgehog protein [2] and at Sonic hedgehog protein [3] was 10 µM each time.
Compound `O=C(NN1CCN(c2nc(-c3cnc4ccccc4n3)no2)CC1)C1CCCCC1` registered a half-inhibitory concentration (IC50) on Sonic hedgehog protein [4] of 5 nM.
`O=C(NN1CCN(c2nc(-c3ccc4ccccc4n3)no2)CC1)C1CCC(F)(F)CC1`: half-maximal inhibition on Sonic hedgehog protein [4] (IC50) required 25 nM.
Turning to `Clc1ccc(N2CCC(N3CCCC3)CC2)cc1-c1nc2ccccc2[nH]1`, the IC50 in experiment [5] is 23 nM.
As for `COc1ccc(OC)c2c1cc1n2CC(C)(C(=O)NC2CCCCCCC2)N(CCN(C)C)C1=O` (centres undefined), the IC50 in experiment [1] is below 10 µM.
Still for that read-out and setting: the result for `N#C/C(C(=O)c1ccc(Cl)cc1Cl)=C1\NC(=O)c2ccccc2N1` reads below 10 µM.
In general, GI50 refers to the concentration at which growth is held to half of that of the control. `CN(C)c1ccccc1CN1CCCN(Cc2ccccc2N(C)C)C1c1ccncc1` gave a GI50 in [6] of 5.82 µM.
As usually defined, the EC50 is the concentration at which the effect is half-maximal. With `CC1=C2C[C@H]3[C@@H](CCC4=CC(=O)CC[C@@]43C)[C@@H]2CC[C@@]2(C1)O[C@@H]1C[C@H](C)CN[C@H]1[C@H]2C`, in experiment [7], a half-maximal response (EC50) required 200 nM.
For `C=C1CC[C@H](O)C/C1=C/C=C1\CCC[C@]2(C)[C@@H]([C@H](C)CCCC(C)C)CC[C@@H]12` [CHOLECALCIFEROL], the Activity result in experiment [8] is on record as “<=90%”.
`CCC(C)n1ncn(-c2ccc(N3CCN(c4ccc(OCC5COC(Cn6cncn6)(c6ccc(Cl)cc6Cl)O5)cc4)CC3)cc2)c1=O` (centres undefined) [ITRACONAZOLE] came in with an IC50 in experiment [9] of 55 nM.
In the case of `Cc1c(Cc2ccccc2)nnc(N2CCN(c3cnc(C(C)(C)O)cn3)[C@H](C)C2)c1C` [LEQ506], the half-maximal inhibitory concentration (IC50) against Protein smoothened is below 100 nM.
